For experiment [1], the system named is Mycobacterium tuberculosis. The experiment is described as follows: Antimycobacterial activity against isoniazid/rifampicin-resistant Mycobacterium tuberculosis isolate 16995 after 7 days by microplate alamar blue assay. As to conditions: isolate 16995, 168 h. It is filed as functional.
Experiment [2] concerns Mycobacterium tuberculosis. In words: Antimycobacterial activity against isoniazid/rifampicin-resistant Mycobacterium tuberculosis isolate 16833 after 7 days by microplate alamar blue assay. It counts as functional. As to conditions: isolate 16833, 168 h.

≈ marks a conversion by molar mass, not a printed value. A value given as a limit tells only on which side of the number the result lay.

`CCc1nc2ccc(Cl)cn2c1C(=O)NCc1ccc2c(c1)CCN(Cc1ccc(C(F)(F)F)cn1)C2`: the results for the MIC in experiment [1] and in experiment [2] were 0.046 µM (≈ 0.0243 µg/mL) and 0.049 µM (≈ 0.0259 µg/mL), respectively.

Consider `CCc1nc2ccc(Cl)cn2c1C(=O)NCc1ccc2c(c1)CCN(Cc1cc(F)cc(F)c1)C2`, for which the minimum inhibitory concentration (MIC) in experiment [1] and in experiment [2] was below 0.035 µM in each case.

For the compound `CCc1nc2ccc(Cl)cn2c1C(=O)NCc1ccc2c(c1)CCN(Cc1ccc(F)cc1)C2`, the MIC in experiment [1] and in experiment [2] was below 0.035 µM throughout.

As for `CCc1nc2ccc(Cl)cn2c1C(=O)NCc1ccc2c(c1)CCN(CCc1ccc(C(F)(F)F)cn1)C2`, the minimum inhibitory concentration (MIC) in experiment [1] and in experiment [2] was below 0.035 µM each time.

`CCc1nc2cc(Cl)ccn2c1C(=O)NCc1ccc2c(c1)CCN(Cc1ccc(C(C)(C)C)cc1)C2`: the MIC in experiment [1] and in experiment [2] was below 0.035 µM throughout.

For the compound `CCc1nc2ccc(Cl)cn2c1C(=O)NCc1ccc2c(c1)CCN(Cc1ccc(C(F)(F)F)cc1)C2`, the MIC in experiment [1] and in experiment [2] was below 0.035 µM each time.

Turning to `CCc1nc2cc(Cl)ccn2c1C(=O)NCc1ccc2c(c1)CCN(Cc1cc(F)cc(F)c1)C2`, the MIC in experiment [1] is 0.11 µM (≈ 0.0544 µg/mL); in experiment [2], 0.095 µM (≈ 0.047 µg/mL).

Turning to `CCc1nc2cc(Cl)ccn2c1C(=O)NCc1ccc2c(c1)CCN(Cc1ccc(OC)cc1)C2`, the figures for the minimal inhibitory concentration (MIC) in experiment [1] and in experiment [2] were 0.9 µM (≈ 0.44 µg/mL) and 0.096 µM (≈ 0.0469 µg/mL), respectively.

Take `CCc1nc2ccc(Cl)cn2c1C(=O)NCc1ccc2c(c1)CCN(Cc1ccc(Br)cc1)C2`: the MIC in experiment [1] and in experiment [2] was below 0.035 µM in each case.

Consider `CCc1nc2ccc(Cl)cn2c1C(=O)NCc1ccc2c(c1)CN(C(C)c1ccc(OC(F)(F)F)cc1)C2` (centres undefined), for which the MIC in experiment [1] and in experiment [2] was below 0.035 µM each time.

`CCc1nc2ccc(Cl)cn2c1C(=O)NCc1ccc2c(c1)CCN(Cc1ccc(C(C)(C)C)cc1)C2`: the MIC in experiment [1] and in experiment [2] was below 0.035 µM in each case.

In the case of `CCc1nc2ccc(Cl)cn2c1C(=O)NCc1ccc2c(c1)CCN(Cc1ccc(C)cc1)C2`, the MIC in experiment [1] and in experiment [2] was below 0.035 µM throughout.

In the case of `CCc1nc2ccc(Cl)cn2c1C(=O)NCc1ccc2c(c1)CCN(Cc1ccc(C(F)(F)F)nc1)C2`, the values for the MIC in experiment [1] and in experiment [2] were 0.047 µM (≈ 0.0248 µg/mL) and below 0.035 µM, respectively.

As to `CCc1nc2ccc(Cl)cn2c1C(=O)NCc1ccc2c(c1)CN(Cc1ccc(OC(F)(F)F)cc1)C2`, the MIC in experiment [1] and in experiment [2] was below 0.035 µM throughout.

Take `CCc1nc2ccc(Cl)cn2c1C(=O)NCc1ccc2c(c1)CCN(Cc1ccc(OC)cc1)C2`: the MIC in experiment [1] and in experiment [2] was below 0.035 µM each time.

Turning to `CCc1nc2cc(Cl)ccn2c1C(=O)NCc1ccc2c(c1)CCN(CCc1ccc(C(F)(F)F)cn1)C2`, the minimum inhibitory concentration (MIC) was 0.061 µM (≈ 0.0331 µg/mL) in experiment [1] and below 0.035 µM in experiment [2].

With `CCc1nc2ccc(Cl)cn2c1C(=O)NCc1ccc2c(c1)CCN(CCc1ccc(C(F)(F)F)nc1)C2`, the MIC in experiment [1] and in experiment [2] was below 0.035 µM throughout.

Consider `CCc1nc2cc(Cl)ccn2c1C(=O)NCc1ccc2c(c1)CCN(Cc1ccc([N+](=O)[O-])o1)C2`, for which the MIC was 0.44 µM (≈ 0.217 µg/mL) in experiment [1] and 1.24 µM (≈ 0.612 µg/mL) in experiment [2].

For `NNC(=O)c1ccncc1` [ISONIAZID], the MIC in experiment [1] and in experiment [2] was above 40 µM throughout.

With `O=c1nc(N2CCN(CC3CCCCC3)CC2)sc2c([N+](=O)[O-])cc(C(F)(F)F)cc12` [MACOZINONE], the MIC in experiment [1] and in experiment [2] was below 0.035 µM in each case.

As for `CO[C@H]1/C=C/O[C@@]2(C)Oc3c(C)c(O)c4c(O)c(c(/C=N/N5CCN(C)CC5)c(O)c4c3C2=O)NC(=O)/C(C)=C\C=C\[C@H](C)[C@H](O)[C@@H](C)[C@@H](O)[C@@H](C)[C@H](OC(C)=O)[C@@H]1C` [RIFAMPIN], the MIC in experiment [1] and in experiment [2] was above 40 µM throughout.

`CCc1nc2ccc(Cl)cn2c1C(=O)NCc1ccc(N2CCC(c3ccc(OC(F)(F)F)cc3)CC2)cc1` [TELACEBEC]: the MIC in experiment [1] and in experiment [2] was below 0.035 µM each time.

(Values after ChEMBL document CHEMBL4411339, “Design, synthesis and antimycobacterial activity of less lipophilic Q203 derivatives containing alkaline fused ring moieties” (Bioorg Med Chem, 2019).)
